In patent US4595677A, “Substituted tetrapeptides” (Ciba-Geigy Corporation, priority 1982, dated 1986):
Non-standard residues stand in square brackets, D forms with d. Residues, ends and D or L forms follow the SMILES beside them. *: point of attachment. Sta = CC(C)C[C@H](N)[C@@H](O)CC(=O)O; Cbz = O=C(OCc1ccccc1)*; Boc = CC(C)(C)OC(=O)*; Lac = C[C@H](O)C(=O)O; βAla = NCCC(=O)O; Sar = CNCC(=O)O

Assay: solubility in water of the isolated powder
Type: physicochemical
Conditions: lyophilised product

Molecule	water solubility of the amorphous powder
CC(C)C[C@H](NC(=O)[C@H](Cc1c[nH]cn1)NC(=O)[C@H](Cc1ccccc1)NC(=O)[C@@H]1CCCN1C(=O)[C@H](Cc1c[nH]cn1)NC(=O)[C@@H]1CCCN1)[C@@H](O)CC(=O)N[C@H](C(=O)N[C@@H](Cc1ccc(O)cc1)C(=O)N[C@@H](CCCCN)C(=O)O)C(C)C [Example 1, H-Pro-His-Pro-Phe-His-Sta-Val-Tyr-Lys-OH×AcOH] (H-PHPFH[Sta]VYK-OH)	readily water-soluble
CC(C)C[C@H](NC(=O)[C@H](Cc1c[nH]cn1)NC(=O)[C@H](Cc1ccccc1)NC(=O)[C@@H]1CCCN1C(=O)[C@H](CCCNC(=N)N)NC(=O)[C@@H](N)CCCNC(=N)N)[C@@H](O)CC(=O)N(C)CC(=O)N[C@@H](Cc1c[nH]cn1)C(=O)N[C@@H](CCCCN)C(=O)O [Example 19, H-Arg-Arg-Pro-Phe-His-Sta-Sar-His-Lys-OH] (H-RRPFH[Sta][Sar]HK-OH)	readily water-soluble
Cbz-RRPFH[Sta][βAla]H-NH2 [Example 20]	water-soluble
CC(C)C[C@H](NC(=O)[C@H](Cc1c[nH]cn1)NC(=O)[C@H](Cc1ccccc1)NC(=O)[C@@H]1CCCN1C(=O)[C@H](CCCNC(=N)N)NC(=O)[C@@H](N)CCCNC(=N)N)[C@@H](O)CC(=O)O[C@@H](C)C(=O)N[C@@H](Cc1c[nH]cn1)C(N)=O [Example 23, H-Arg-Arg-Pro-Phe-His-Sta-Lac-His-NH2] (H-RRPFH[Sta][Lac]H-NH2)	water-soluble
Cbz-RRPFH[Sta][Sar]HK(Boc)-OMe [Example 16]	readily water-soluble
Z-Arg-Arg-Pro-Phe-His-Sta-Lac-His-NH2 [Example 22]	readily water-soluble
